Laboratory results as given in publication PMC8315060, “N-terminus-independent activation of c-Src via binding to a tetraspan(in) TM4SF5 in hepatocellular carcinoma is abolished by the TM4SF5 C-terminal peptide application” (Theranostics, 2021).

Columns and labels:
Type in all cases: cell-based
PTP1B binding to TM4SF5 = target: T1, PTP1B binding to TM4SF5 (Homo sapiens, UniProt O14894); assay: Streptavidin pull-down of STrEP-TM4SF5 and immunoblot for PTP1B after TSAHC; details: stable SNU449 cells, TSAHC 20 μM for 24 h, immunoblot, Figure 3E
T1 construct: TM4SF5WT (NM-003963, 197 amino acids); expressed in transfected cells; host or cells: SNU449 cells stably expressing STrEP-TM4SF5
T1 sequence (O14894 1-197): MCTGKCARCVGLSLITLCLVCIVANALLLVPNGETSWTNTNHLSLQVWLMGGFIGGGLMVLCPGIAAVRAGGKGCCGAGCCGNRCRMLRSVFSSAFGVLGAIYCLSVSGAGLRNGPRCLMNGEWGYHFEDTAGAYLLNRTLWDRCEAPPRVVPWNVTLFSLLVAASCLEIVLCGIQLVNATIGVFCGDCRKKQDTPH
Description: Co-immunoprecipitation: Whole cell extracts were precipitated with anti-FLAG antibody (Cell Signaling Technology) or […]-precoated beads (Sigma-Aldrich) in a cold room overnight prior to immunoblotting with the indicated antibodies. For co-immunoprecipitation of endogenous proteins, whole cell lysates of endogenous TM4SF5-expressing HepG2 cells were precipitated with either anti-TM4SF5 [27] or c-Src (sc-8056, clone H-12) antibody prior to immunoblotting for FAK, c-Src, and TM4SF5. Immunoprecipitated proteins were boiled in 2× SDS-PAGE sample buffer before undergoing western blotting using standard protocols. Quantification of band intensity was performed as described above.
(A and B) SNU449 cells transiently transfected with the c-Src SH321 construct together with the indicated constructs were harvested (A). SNU761 cells stably expressing mock or FLAG-TM4SF5 were transiently transfected with the indicated constructs were harvested (B). The whole cell lysates (WCL) were precipitated with streptavidin beads, prior to immunoblotting. […] Quantitative comparison ratios were calculated from the blots by measurement of band intensities using Image J and normalization of them to those of loading controls. […]

TM4SF5 = target: T2, TM4SF5 (Homo sapiens, UniProt O14894); assay: Immunofluorescence of TM4SF5 localization after TSAHC; details: TM4SF5-Flag cells, TSAHC 20 μM for 24 h, Figure 3E
T2 construct: TM4SF5WT (NM-003963, 197 amino acids); expressed in transfected cells
T2 sequence (O14894 1-197): T1 sequence (O14894 1-197)
Experimental: Indirect immunofluorescence: Cells maintained under normal culture conditions on glass coverslips were treated with peptides for 1 day in the absence or presence of 10 μM TSAHC, a specific TM4SF5 inhibitor [29]. The cells were incubated with either PBS (non-permeabilized) or 0.5% Triton X-100 in PBS (permeabilized) for 5 min at RT and then stained using an antibody against TAT (1:100 dilution, Cell Applications, Inc., San Diego, CA, USA). Cells treated with the CPPs were also fixed with 4% formaldehyde for 10 min at RT, incubated with 30 mM glycine for 30 min, permeabilized as described above, and then stained with antibodies against pY397FAK (Cat #: 611723, BD Transduction Laboratories, 1:500 dilution) or pY861FAK (sc-16663-R, Santa Cruz Biotechnology, 1:500 dilution). Phalloidin was also used to stain for F-actin. Immunofluorescent images were acquired on a confocal (Nikon eclipse Ti; Nikon, Melville, NY, USA) or a fluorescent microscope (BX51, Olympus, Japan).
(A and B) SNU449 cells transiently transfected with the c-Src SH321 construct together with the indicated constructs were harvested (A). […] Quantitative comparison ratios were calculated from the blots by measurement of band intensities using Image J and normalization of them to those of loading controls. […]

TM4SF5 binding to c-Src = target: T3, TM4SF5 binding to c-Src (Homo sapiens, UniProt O14894); assay: TM4SF5 binding to c-Src after TSAHC treatment; details: treatment of TSAHC, stated in the discussion
T3 construct: TM4SF5WT (NM-003963, 197 amino acids); expressed in transfected cells
T3 sequence (O14894 1-197): T1 sequence (O14894 1-197)
Description: (A and B) SNU449 cells transiently transfected with the c-Src SH321 construct together with the indicated constructs were harvested (A). SNU761 cells stably expressing mock or FLAG-TM4SF5 were transiently transfected with the indicated constructs were harvested (B). The whole cell lysates (WCL) were precipitated with streptavidin beads, prior to immunoblotting. (C) SNU761 cells stably expressing mock or FLAG-TM4SF5WT (WT) were transiently transfected with the indicated construct and siRNAs against a scrambled sequence (siCont) or a sequence in PTP1B (siPTP1B). Immunoprecipitation from the WCL using anti-Flag-precoated sepharose beads was performed, before immunoblots. (D) SNU449 cells transfected with the indicated plasmids were processed for precipitation using streptavidin beads, prior to immunoblotting. (E) Stable SNU449 cells were treated with DMSO (-) or TSAHC (20 μM, +) for 24 h, before harvest, precipitation using streptavidin beads, and immunoblotting. Another cell set with TM4SF5-Flag and treated with DMSO or TSAHC as above was processed for immunofluorescence analysis. (F) SNU761 cells stably expressing TM4SF5WT were transiently transfected with the indicated siRNAs for 48 h, prior to transwell migration assay. […] Quantitative comparison ratios were calculated from the blots by measurement of band intensities using Image J and normalization of them to those of loading controls. […]

Cc1ccc(S(=O)(=O)Nc2ccc(C(=O)C=Cc3ccc(O)cc3)cc2)cc1 [TSAHC, 4-(p-toluenesulfonylamido)-4-hydroxychalcone]
PTP1B binding to TM4SF5 (PTP1B binding to TM4SF5): reduced substantially | membrane localization of TM4SF5 (TM4SF5): still showed membrane localization of TM4SF5 | TM4SF5 binding to c-Src (TM4SF5 binding to c-Src): impaired TM4SF5 binding to c-Src
